System: hESC-VCMs
Assay: Effect of isoproterenol on control and P5-aligned hESC-VCM preparations (optical mapping)
Type: cell-based, human
Conditions: for CV of control preparations: steady-state pacing at 1 Hz
Experimental: HESC-VCM preparations were loaded with 4 μM di-4-ANEPPS (Invitrogen, USA) for 20 min at room temperature in Tyrode's solution, consisting of (mM) 140 NaCl, 5 KCl, 1 MgCl2, 1 CaCl2, 10 glucose, and 10 HEPES at pH 7.4, then washed twice before fluorescence imaging using a halogen light filtered by a 515±35 nm band-pass excitation filter and a 590 nm high-pass emission filter. High-resolution optical mapping of AP and conduction properties was performed using a MiCam Ultima (SciMedia, Calif., USA) with a 1X objective and a 1X condensing lens to yield a 10×10 mm^2 field of view. A custom heat plate was introduced to maintain the perfused Tyrode's solution at 37° C. Data were collected at a sampling rate of 200 Hz and analyzed using BV_Ana software (SciMedia). Isoproterenol (Sigma-Aldrich, N.Y., USA) was applied by perfusion at the concentrations indicated.
Electrophysiological protocols were generated using a programmable stimulator (Master8, AMPI, Israel) with the stimuli delivered via a unipolar point-stimulation electrode (1.5× threshold, 10 ms duration) placed perpendicular to the preparation surface. […] The frequency was increased every minute in 0.1-Hz increments with a 5-sec pause.
Mapping was performed during the last 5-10 seconds of each frequency. […] Programmed electrical stimulation, Standard (S1-S2) programmed electrical stimulation (PES) protocol was introduced to study the electrical restitution curve (ERC) of hESC-VCMs. A premature extra-stimulus (S2) was delivered after a train of eight S1 stimuli at a basic cycle length (BCL) of 650 ms. S1-S2 interval was initiated at 600 ms and consecutively shortened in steps of 20 ms until capture has failed. […] There was a pause of 10 s after each S2. The entire stimulation protocol was performed within 30 minutes after di-4-ANEPPS staining.

[1] = P5-aligned preparations, 0.5 μM, n=3

SMILES: CC(C)NCC(O)c1ccc(O)c(O)c1 (stereo not shown) [isoproterenol]
- CV of control preparations (0.1 μM isoproterenol, n=3): 6.3 ± 1.4 cm/s
- CV of control preparations (0.5 μM isoproterenol, n=3): 7.6 ± 1.1 cm/s
- CV of control preparations (1.0 μM isoproterenol, n=3): 8.1 ± 0.6 cm/s
- depolarization (upstroke) velocity (FIG. 6, hESC-VCMs): increasing
- AP duration (FIG. 6F, hESC-VCMs): reduces
- sustained functional reentrant arrhythmias (P5-aligned preparations, 0.5 μM, n=2): no sustained functional reentrant arrhythmias could be observed
- L-CV after isoproterenol [1]: 7.76 cm/s
- T-CV after isoproterenol [1]: 4.91 cm/s
- AR after isoproterenol application (P5-aligned preparations, n=2): 1.76
- control preparations with spontaneous spiral waves (sustained functional reentrant arrhythmias) (control substrates, 2 of 3 preparations, 0.5 μM per FIG. 6C): 66%
